Data reported in patent US8796264B2, “2-piperazin-1-yl-4H-1,3-benzothiazin-4-one derivatives and their use for the treatment of mammalian infections” (Ecole Polytechnique Federale de Lausanne (EPFL), priority 2010, dated 2014).
Values after ≈ are worked out from the molar mass of the structure shown.

Legend:
[1] = Intrinsic clearance in liver microsomes
Method: (§1) Next, PBTZ169 and BTZ043 were incubated at a concentration of 1 μg/mL with 0.1 mg of human or mouse liver microsomes (Invitrogen) in order to measure their intrinsic clearance. The relative amounts of the original compound remaining over time were determined by HPLC.

M. smegmatis = test: In vitro inhibitory activity, resazurin reduction assay (MIC99); format: cell-based, Mycobacterium smegmatis; conditions: Mycolicibacterium smegmatis, read-out: typical MIC values, M. smegmatis
[2] = tested on: Corynebacterium glutamicum ATCC13032; test: In vitro inhibitory activity against actinobacteria (MIC); format: cell-based; conditions: read-out: typical MIC values, Corynebacterium glutamicum ATCC13032
M. tuberculosis H37Rv = test: In vitro inhibitory activity, resazurin reduction assay (MIC99); format: cell-based, Mycobacterium tuberculosis; conditions: for MIC: Mycobacterium tuberculosis, H37RV, resazurin reduction assay (MIC99), read-out: typical MIC values, M. tuberculosis H37Rv; for MIC used for the selectivity index: strain not stated
[3] = tested on: M. tuberculosis strain H37Rv; test: In vivo efficacy in the acute murine TB model; set-up: species or system mice; conditions: for Log of CFU lungs: 4 weeks treatment, intragastric 5 times a week; for Log of CFU lungs / Medium longevity (days) M ± SEM: compounds and BTZ043 50 mg/kg, isoniazid 25 mg/kg; for Result of treatment, macroscopic condition of the lungs: treatment for prescribed time
[4] = Acute toxicity after administration per os; conditions: mouse, in vivo, mice
Method: The compounds of the invention are non-toxic after administration per os of doses ranging up to 2000 mg/kg. The compound was well tolerated by animals in the first 24 hours after introduction. […] There were no cases of animal death. LD50 for compounds (2) and (18) is >2000 mg/kg.

[5] = tested on: NfnB-overproducing mutant MN39; test: Susceptibility of the NfnB-overproducing mutant MN39; format: cell-based, Mycobacterium smegmatis; conditions: M. smegmatis NfnB-overproducing mutant
From the text: A second resistance mechanism to BTZ043 has been described in Mycobacterium smegmatis due to overproduction of the nitroreductase NfnB (Manina, G., et al. Mol Microbiol 2010. epub 2010/07/14).

[6] = tested on: M. tuberculosis strain H37Rv; test: In vivo efficacy in the chronic murine TB model; set-up: species or system mice; conditions: for Reduction of the CFU load in the lungs and spleens compared to treatment with BTZ043: 50 mg/kg by gavage once daily, six-times/week, 4 weeks
A549 cells = test: Cytotoxicity TC50, resazurin reduction assay; format: cell-based, human; conditions: 72 h incubation
Method: (§2) The selectivity index (SI) of a compound provides a good indication of the potential tolerability of a drug candidate. […] The TC50 of PBTZ169 and BTZ043 were established using two human cell lines, the hepatocyte line HepG2 and the pneumocyte line A549, using the resazurin reduction assay after incubation with varying amounts of the compounds for 72 h. […] The respective MICs were 1 and 2 ng/ml for PBTZ169 and BTZ043. […] In clinical terms, PBTZ169 should be safer and better tolerated than BTZ043.

HepG2 cells = test: Cytotoxicity TC50, resazurin reduction assay; format: cell-based, human; conditions: 72 h incubation
Method: as §2

in vitro = conditions: human, plasma
Method: as §1

[7] = Chemical stability in simulated gastric fluid; format: physicochemical; conditions: 5 μM, after 60 minutes
[8] = 1 μg/mL with 0.1 mg microsomes, HPLC

| SMILES | MIC (M. smegmatis) [µg/mL] | MIC [2] [µg/mL] | MIC (M. tuberculosis H37Rv) [µg/mL] | Log of CFU lungs [3] | Medium longevity (days) M ± SEM [3] | Result of treatment, macroscopic condition of the lungs [3] | melting point [°C] | other results |
| --- | --- | --- | --- | --- | --- | --- | --- | --- |
| NC(=O)N1c2ccccc2C=Cc2ccccc21 [Carbamazepine] | – | – | – | – | – | – | – | Intrinsic Clearance (Clint), Human liver microsomes ([1]; human, microsomes): 0.6 μL/min/mg of protein; Intrinsic Clearance (Clint), Mouse liver microsomes ([1]; mouse, microsomes): 1.1 μL/min/mg of protein |
| CCCN1CCN(c2nc(=O)c3cc(C(F)(F)F)cc([N+](=O)[O-])c3s2)CC1 [Compound 19, 2-(4-propylpiperazin-1-yl)-8-nitro-6-(tfluoromethyl)-4H-1,3-benzothiazin-4-one] | ≤ 0.19 | 0.25 (≈ 0.621 µM) | 0.0037 (≈ 0.00919 µM) | 4.63 | Alive at sacrifice | marked improvement | – | – |
| O=c1nc(N2CCN(CCCOc3ccc(F)cc3)CC2)sc2c([N+](=O)[O-])cc(C(F)(F)F)cc12 [Compound 18, 2-{4-[3-(4-fluorophenoxy)propyl]piperazin-1-yl}-8-nitro-6-(trifluoromethyl)-4H-1,3-benzothiazin-4-one] | ≤ 0.0019 | 0.25 (≈ 0.488 µM) | ≤ 0.0019 | – | – | – | – | LD50 at 7 days [4]: > 2000 mg/kg |
| C[C@H]1COC2(CCN(c3nc(=O)c4cc(C(F)(F)F)cc([N+](=O)[O-])c4s3)CC2)O1 [BTZ043, 2-[(2S)-2-methyl-1,4-dioxa-8-azaspiro[4.5]dec-8-yl]-8-nitro-6-(trifluoromethyl)-4H-1,3-benzothia-zin-4-one, reference compound] | – | – | – | 4.78 | Alive at sacrifice | marked improvement | – | Increase in the MIC for MN39 relative to the wild type parental strain [5]: 6 fold; Efficacy in reducing CFU compared to INH ([6]; INH 25 mg/kg): slightly inferior to INH; Intrinsic Clearance (Clint), Human liver microsomes [1, 8]: 16.2 μL/min/mg of protein; Intrinsic Clearance (Clint), Mouse liver microsomes [1, 8]: 10.3 μL/min/mg of protein; TC50 against A549 cells (A549 cells): 16.3 µg/mL (≈ 37.8 µM); TC50 against HepG2 cells (HepG2 cells): 6.3 µg/mL (≈ 14.6 µM); MIC used for the selectivity index (M. tuberculosis H37Rv): 0.002 µg/mL |
| O=c1nc(N2CCN(CCC3CCCCC3)CC2)sc2c([N+](=O)[O-])cc(C(F)(F)F)cc12 [Compound 6, 2-[4-(2-cyclohexylethyl)piperazin-1-yl]-8-nitro-6-(trifluoromethyl)-4H-1,3-benzothiazin-4-one] | ≤ 0.0019 | 0.125 (≈ 0.266 µM) | ≤ 0.00019 | – | – | – | 175 to 177 | – |
| CCC(C)N1CCN(c2nc(=O)c3cc(C(F)(F)F)cc([N+](=O)[O-])c3s2)CC1 (stereo not shown) [Compound 5, 2-(4-sec-butylpiperazin-1-yl)-8-nitro-6-(trifluoromethyl)-4H-1,3-benzothiazin-4-one] | ≤ 0.0019 | 0.062 (≈ 0.149 µM) | 0.00037 (≈ 0.000889 µM) | – | – | – | 127 to 128 | – |
| O=c1nc(N2CCN(CC3CCCCC3)CC2)sc2c([N+](=O)[O-])cc(C(F)(F)F)cc12 [Compound 2, 2-[4-(cyclohexylmethyl)piperazin-1-yl]-8-nitro-6-(trifluoromethyl)-4H-1,3-benzothiazin-4-one] | ≤ 0.17 | – | ≤ 0.00019 | 4.30 | Alive at sacrifice | marked improvement | – | half-life (in vitro): > 1 h; Reduction of the CFU load in the lungs and spleens compared to treatment with BTZ043 [6]: significantly more efficacious; Intrinsic Clearance (Clint), Human liver microsomes [1, 8]: 23.9 μL/min/mg of protein; Intrinsic Clearance (Clint), Mouse liver microsomes [1, 8]: 20.9 μL/min/mg of protein; TC50 against A549 cells (A549 cells): 73.2 µg/mL (≈ 160 µM); TC50 against HepG2 cells (HepG2 cells): 66.7 µg/mL (≈ 146 µM); MIC used for the selectivity index (M. tuberculosis H37Rv): 0.001 µg/mL; Compound remained in simulated gastric fluid [7]: 67%; LD50 at 7 days [4]: > 2000 mg/kg |
| CCCC(C)N1CCN(c2nc(=O)c3cc(C(F)(F)F)cc([N+](=O)[O-])c3s2)CC1 (stereo not shown) [Compound 7, 2-[4-(1-methylbutyl)piperazin-1-yl]-8-nitro-6-(trifluoromethyl)-4H-1,3-benzothiazin-4-one] | ≤ 0.0019 | 0.125 (≈ 0.29 µM) | ≤ 0.00019 | – | – | – | 132 to 133 | – |
| NNC(=O)c1ccncc1 [Izoniazid, Isoniazid, reference compound] | – | – | – | 4.34 | Alive at sacrifice | marked improvement | – | – |
| O=c1nc(N2CCN(C34CC5CC(CC(C5)C3)C4)CC2)sc2c([N+](=O)[O-])cc(C(F)(F)F)cc12 [Compound 15, 2-[4-(1-adamantyl)piperazin-1-yl]-8-nitro-6-(trifluoromethyl)-4H-1,3-benzothiazin-4-one] | 0.062 (≈ 0.125 µM) | < 0.5 | 0.015 (≈ 0.0303 µM) | – | – | – | 236 to 238 | – |
| CCC(CC)N1CCN(c2nc(=O)c3cc(C(F)(F)F)cc([N+](=O)[O-])c3s2)CC1 [Compound 13, 2-[4-(1-ethylpropyl)piperazin-1-yl]-8-nitro-6-(trifluoromethyl)-4H-1,3-benzothiazin-4-one] | ≤ 0.0019 | ≤ 0.0019 | 0.00037 (≈ 0.00086 µM) | – | – | – | 152 to 153 | – |
| CCCCCCCN1CCN(c2nc(=O)c3cc(C(F)(F)F)cc([N+](=O)[O-])c3s2)CC1 [Compound 8, 2-(4-heptylpiperazin-1-yl)-8-nitro-6-(trifluoromethyl)-4H-1,3-benzothiazin-4-one] | ≤ 0.0019 | 0.125 (≈ 0.273 µM) | ≤ 0.00019 | – | – | – | 125 to 127 | Reduction of the CFU load in the lungs and spleens compared to treatment with BTZ043 [6]: significantly more efficacious |
